Where two headings read alike, the source gives them in different places.
Key:
[1] = test system: HCV replicon in Huh7 cells; test: HCV replicon cell-based assay; design: species or system HCV strain 1B; conditions: HCV replicon, Huh7 cells, read-out: EC50 range
[2] = target: HCV NS3/4A protease complex, BMS strain (UniProt P27958, C1454S/C1711G, species not given/STRAIN_BMS); test: Recombinant HCV NS3/4A protease complex FRET peptide assay (BMS strain); format: biochemical, HCV genotype 1a
Summary of the method: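 Percent inhibition taken from the linear-range fluorescence slope relative to uninhibited control, read kinetically for about 15 min at 25° C. Enzyme (2-3 nM, BMS NS3/4A complex, lysine-tailed, Ni-NTA purified) met compound for 1 min before 2 μM FRET depsipeptide substrate started cleavage.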

[3] = NS3/4A BMS strain; read-out: IC50 range

Row | Compound | EC50 ([1]; Hepatitis C virus, Huh-7) [nM] | IC50 [2, 3] [nM] | IC50 ([2]; read-out: IC50 range; NS3/4A BMS strain) [nM] | EC50 [1] [nM]
1 | C=C[C@@H]1C[C@]1(NC(=O)[C@@H]1CC(Oc2nccc3cc(OC)ccc23)CN1C(=O)[C@H](CCCC)N(C)C(=O)OC(C)(C)C)C(=O)NS(=O)(=O)C1CC1 (stereo partly drawn) [Compound 87] | 10000 to 100000 | 1000 to 10000 |  | 
2 | C=CC1C[C@]1(NC(=O)[C@@H]1C[C@@H](Oc2ccnc3c(F)cccc23)CN1C(=O)[C@@H](NC(=O)OC(C)(C)C)C(C)(C)C)C(=O)NS(=O)(=O)C1CC1 (stereo partly drawn) [Compound 241, BOCNH-P3(L-t-BuGly)-P2[(4R)-(8-fluoroquinoline-4-oxo)-S -proline]-P1(1R,2S VinylAcca)-CONHSO2Cyclopropane] | < 100 | < 100 |  | 
3 | C=C[C@@H]1C[C@]1(NC(=O)[C@@H]1CC(Oc2nccc3cc(OC)ccc23)CN1C(=O)[C@H](CC(C)C)N(C)C(=O)OC(C)(C)C)C(=O)NS(=O)(=O)C1CC1 (stereo partly drawn) [Compound 86] | 10000 to 100000 | 1000 to 10000 |  | 
4 | C=C[C@@H]1C[C@]1(NC(=O)[C@@H]1C[C@@H](Oc2cc(-c3ccccc3OC)nc3c(C)noc23)CN1C(=O)[C@@H](NC(=O)OC(C)(C)C)C(C)(C)C)C(=O)NS(=O)(=O)C1CC1 [Compound 6] | 100 to 1000 | 100 to 1000 |  | 
5 | C=C[C@@H]1C[C@]1(NC(=O)[C@@H]1C[C@@H](Oc2nccc3cc(OC)ccc23)CN1C(=O)[C@@H](NC(=O)OC(C)(C)C)[C@@H](C)OC)C(=O)NS(=O)(=O)C1CC1 [Compound 92] | < 100 | < 100 |  | 
6 | C=C[C@@H]1C[C@]1(NC(=O)[C@@H]1C[C@@H](Oc2nccc3c(OC(F)(F)F)cccc23)CN1C(=O)[C@@H](NC(=O)OC(C)(C)C)C(C)(C)C)C(=O)NS(=O)(=O)C1CC1 [Compound 269] | 100 to 1000 | < 100 |  | 
7 | C=C[C@@H]1C[C@]1(NC(=O)[C@@H]1C[C@@H](Oc2ccnc(-c3cccn3C)c2)CN1C(=O)[C@@H](NC(=O)OC(C)(C)C)C(C)(C)C)C(=O)NS(=O)(=O)C1CC1 [Compound 434] | 100 to 1000 | < 100 |  | 
8 | C=C[C@@H]1C[C@]1(NC(=O)[C@@H]1C[C@@H](Oc2nccc3c4c(ccc23)OCCO4)CN1C(=O)[C@@H](NC(=O)OC(C)(C)C)C(C)(C)C)C(=O)NS(=O)(=O)C1CC1 [Compound 286] | < 100 | < 100 |  | 
9 | C=CC1C[C@]1(NC(=O)[C@@H]1C[C@@H](Oc2nnc(OC(C)C)c3ccccc23)CN1C(=O)[C@@H](NC(=O)OC(C)(C)C)C(C)(C)C)C(=O)NS(=O)(=O)C1CC1 (stereo partly drawn) [Compound 199] | 100 to 1000 | < 100 |  | 
10 | C=C[C@@H]1C[C@]1(NC(=O)[C@@H]1C[C@@H](Oc2nccc3cc(OC)ccc23)CN1C(=O)[C@@H](NC(=O)OC(C)(C)C(F)(F)F)C(C)(C)C)C(=O)NS(=O)(=O)C1CC1 [Compound 155] | < 100 | < 100 |  | 
11 | C=C[C@@H]1CC1(NC(=O)[C@@H]1CC(Oc2nccc3cc(OC)ccc23)CN1C(=O)[C@@H](NC(=O)CO[C@H]1C[C@@H](C)CC[C@@H]1C(C)C)C(C)(C)C)C(=O)NS(=O)(=O)C1CC1 (stereo partly drawn) [Compound 60] | 1000 to 10000 | < 100 |  | 
12 | C=C[C@@H]1C[C@]1(NC(=O)[C@@H]1CC(Oc2nccc3cc(OC)ccc23)CN1C(=O)[C@H](C(C)C)N(C)C(=O)OC(C)(C)C)C(=O)NS(=O)(=O)C1CC1 (stereo partly drawn) [Compound 85] | 1000 to 10000 | 100 to 1000 |  | 
13 | C=C[C@@H]1C[C@]1(NC(=O)[C@@H]1C[C@@H](Oc2nccc3cc(-n4cccn4)ccc23)CN1C(=O)[C@@H](NC(=O)OC(C)(C)C)C(C)(C)C)C(=O)NS(=O)(=O)C1CC1 [Compound 21] | < 100 | < 100 |  | 
14 | C=C[C@@H]1C[C@]1(NC(=O)[C@@H]1C[C@@H](Oc2ccnc(Br)c2)CN1C(=O)[C@@H](NC(=O)OC1CCCC1)C(C)(C)C)C(=O)NS(=O)(=O)C1CC1 [Compound 425] | 1000 to 10000 | 100 to 1000 |  | 
15 | C=C[C@@H]1CC1(NC(=O)[C@@H]1CC(Oc2nccc3cc(OC)ccc23)CN1C(=O)[C@@H](NC(=O)NC(C)(C)CC)C(C)(C)C)C(=O)NS(=O)(=O)C1CC1 (stereo partly drawn) [Compound 76] | < 100 |  | < 100 | 
16 | C=CC1C[C@]1(NC(=O)[C@@H]1C[C@@H](Oc2nsc3ccccc23)CN1C(=O)[C@@H](NC(=O)OC(C)(C)C)C(C)(C)C)C(=O)NS(=O)(=O)C1CC1 (stereo partly drawn) [Compound 324] | 100 to 1000 | < 100 |  | 
17 | C=C[C@@H]1C[C@]1(NC(=O)[C@@H]1C[C@@H](Oc2nc(-c3ccc(N(C)C)cc3)cc3ccccc23)CN1C(=O)[C@@H](NC(=O)OC(C)(C)C)C(C)(C)C)C(=O)NS(=O)(=O)C1CC1 [Compound 28] | < 100 | < 100 |  | 
18 | C=CC1C[C@]1(NC(=O)[C@@H]1C[C@@H](Oc2nccc3sccc23)CN1C(=O)[C@@H](NC(=O)OC(C)(C)C)C(C)(C)C)C(=O)NS(=O)(=O)C1CC1 (stereo partly drawn) [Compound 235] | 100 to 1000 | < 100 |  | 

Row | Compound | EC50 ([1]; Hepatitis C virus, Huh-7) [nM] | IC50 [2, 3] [nM] | IC50 ([2]; read-out: IC50 range; NS3/4A BMS strain) [nM] | EC50 [1] [nM]
19 | C=C[C@@H]1C[C@]1(NC(=O)[C@@H]1C[C@@H](Oc2nc(-c3ccoc3)c(OC)c3ccccc23)CN1C(=O)[C@@H](NC(=O)OC(C)(C)C)C(C)(C)C)C(=O)NS(=O)(=O)C1CC1 [Compound 229, BOCNH-P3(L-t-BuGly)-P2[(4R)-(3-furan-3-yl-4methoxy -isoquinolin-1-oxo)-S-proline]-P1(1R,2S VinylAcca)-CONHSO2Cyclopropane] |  | < 100 |  | < 100
20 | C=C[C@@H]1C[C@]1(NC(=O)[C@@H]1C[C@@H](Oc2nccc3cc(OC)ccc23)CN1C(=O)C(NC(=O)OC(C)(C)C)C(C)c1ccccc1)C(=O)NS(=O)(=O)C1CC1 (single isomer, unassigned) [Compound 136] |  | < 100 |  | 100 to 1000
21 | C=C[C@@H]1C[C@]1(NC(=O)[C@@H]1C[C@@H](Oc2nccc3c(F)cccc23)CN1C(=O)[C@@H](NC(=O)OC(C)(C)C)C(C)(C)C)C(=O)NS(=O)(=O)C1CC1 [Compound 255] | 100 to 1000 | < 100 |  | 
22 | C=C[C@@H]1C[C@]1(NC(=O)[C@@H]1C[C@@H](Oc2nccc3cc4c(cc23)OC(F)(F)O4)CN1C(=O)[C@@H](NC(=O)OC(C)(C)C)C(C)(C)C)C(=O)NS(=O)(=O)C1CC1 [Compound 288] | 1000 to 10000 | < 100 |  | 
23 | C=C[C@@H]1C[C@]1(NC(=O)[C@@H]1C[C@@H](Oc2cc(-c3cccs3)ncn2)CN1C(=O)[C@@H](NC(=O)OC(C)(C)C)C(C)(C)C)C(=O)NS(=O)(=O)C1CC1 [Compound 412] | < 100 | < 100 |  | 
24 | C=C[C@@H]1C[C@]1(NC(=O)[C@@H]1CC(Oc2nccc3cc(OC)ccc23)CN1C(=O)[C@@H](NC(=O)C1CCCC1)C(C)(C)C)C(=O)NS(=O)(=O)C1CC1 (stereo partly drawn) [Compound 56] | < 100 | < 100 |  | 
25 | C=C[C@@H]1C[C@]1(NC(=O)[C@@H]1C[C@@H](Oc2nc(-c3ccc(OC)cc3)cc3ccccc23)CN1C(=O)[C@@H](NC(=O)OC(C)(C)C)C(C)(C)C)C(=O)NS(=O)(=O)C1CC1 [Compound 26] | < 100 | < 100 |  | 
26 | C=C[C@@H]1C[C@]1(NC(=O)[C@@H]1C[C@@H](Oc2nc(-c3nccs3)cc3cc(OC)ccc23)CN1C(=O)[C@@H](NC(=O)OC(C)(C)C)C(C)(C)C)C(=O)NS(=O)(=O)C1CC1 [Compound 37] | < 100 | < 100 |  | 
27 | C=C[C@@H]1C[C@]1(NC(=O)[C@@H]1C[C@@H](Oc2cc(-c3ccc(F)cc3)nc3c(C)noc23)CN1C(=O)[C@@H](NC(=O)OC(C)(C)C)C(C)(C)C)C(=O)NS(=O)(=O)C1CC1 [Compound 4] | < 100 | < 100 |  | 
28 | C=C[C@@H]1C[C@]1(NC(=O)[C@@H]1C[C@@H](Oc2cc(C)nc(-c3ccccc3)c2)CN1C(=O)[C@@H](NC(=O)OC(C)(C)C)C(C)(C)C)C(=O)NS(=O)(=O)C1CC1 [Compound 437] | 100 to 1000 | < 100 |  | 
29 | C=C[C@@H]1C[C@]1(NC(=O)[C@@H]1C[C@@H](Oc2nccc3ccc(OC)cc23)CN1C(=O)[C@@H](NC(=O)OC(C)(C)C)C(C)(C)C)C(=O)NS(=O)(=O)C1CC1 [Compound 260] | 100 to 1000 | < 100 |  | 
30 | C=CC1C[C@]1(NC(=O)[C@@H]1C[C@@H](Oc2nnc(Cl)c3ccccc23)CN1C(=O)[C@@H](NC(=O)OC(C)(C)C)C(C)(C)C)C(=O)NS(=O)(=O)C1CC1 (stereo partly drawn) [Compound 195, BOCNH-P3(L-tert-BuGly)-P2[(4R)-(4-chloro phthalazine-1-oxo)-S -proline]-P1(1R,2S Vinyl Acca)-CONHSO2-Cyclopropane] | < 100 | < 100 |  | 
31 | C=C[C@@H]1C[C@]1(NC(=O)[C@@H]1C[C@@H](Oc2nccc3cc(OC)ccc23)CN1C(=O)[C@@H](NC(=O)NCC(=O)OC)C(C)(C)C)C(=O)NS(=O)(=O)C1CC1 [Compound 144] | 100 to 1000 | < 100 |  | 
32 | C=C[C@@H]1C[C@]1(NC(=O)[C@@H]1C[C@@H](Oc2nccc3cc(OC)ccc23)CN1C(=O)[C@H](CC(=O)O)NC(=O)OC(C)(C)C)C(=O)NS(=O)(=O)C1CC1 [Compound 140] | 1000 to 10000 | < 100 |  | 
33 | CC[C@@H]1C[C@]1(NC(=O)[C@@H]1C[C@@H](Oc2nccc3c(OC)cccc23)CN1C(=O)[C@@H](NC(=O)OC(C)(C)C)C(C)(C)C)C(=O)NS(=O)(=O)C1CC1 [Compound 292] | 100 to 1000 | < 100 |  | 
34 | C=C[C@@H]1CC1(NC(=O)[C@@H]1CC(Oc2nccc3cc(OC)ccc23)CN1C(=O)[C@@H](NC(=O)CO[C@@H]1C[C@H](C)CC[C@H]1C(C)C)C(C)(C)C)C(=O)NS(=O)(=O)C1CC1 (stereo partly drawn) [Compound 61] | 1000 to 10000 | 100 to 1000 |  | 
35 | C=CC1C[C@]1(NC(=O)[C@@H]1C[C@@H](COc2cccc(-c3ccoc3)n2)CN1C(=O)[C@@H](NC(=O)OC)C(C)(C)C)C(=O)NS(=O)(=O)C1CC1 (stereo partly drawn) [Compound 355] | 10000 to 100000 | 100 to 1000 |  | 
36 | C=C[C@@H]1C[C@]1(NC(=O)[C@@H]1C[C@@H](Oc2nc(-c3cnccn3)cc3ccccc23)CN1C(=O)[C@@H](NC(=O)OC(C)(C)C)C(C)(C)C)C(=O)NS(=O)(=O)C1CC1 [Compound 31] | < 100 | < 100 |  | 

Source: patent US7915291B2, “Hepatitis C virus inhibitors” (Bristol-Myers Squibb Company, priority 2002, dated 2011)
